Test results taken from patent US4436934A, “Bicyclic prostaglandin analogs and method of synthesis” (Iowa State University Research Foundation, Inc., priority 1981, dated 1984).

How the values were obtained:
[1] = system: platelet thrombus (laser micro-injury of small blood vessel); experiment: biolaser model of experimental thrombosis (rabbit ear chamber); assay type: in vivo; settings: combined with anagrelide at a lower than threshold level
Description: These compounds were studied in vivo in an animal model for experimental thrombosis. The use of this model is described in detail in the reprint, Use of the Biolaser in the Evaluation of Anti-Thrombotic Agents, J. S. Fleming et al. "Platelets and Thrombosis", eds. S. Sherry and A. Scriabrine, University Park Press, 1974, Baltimore, which is incorporated herein by reference.
In brief, a micro-injury is created by a laser beam focused through a microscope onto the endothelium surface of a small blood vessel in a surgically implanted ear chamber of a rabbit. The injury induces the rapid formation of a platelet thrombis which can be measured. […] Prostacyclin is active in the biolaser model when infused intraveneously. The results of these tests preliminarily indicate that there is a super additive interaction between anagrelide and the compounds of this invention. […] To date, no other compounds have undergone significant in vivo analysis in the rabbit ear test.

[2] = system: platelet thrombus (laser micro-injury of small blood vessel); settings: cited from earlier work; for inhibition of thrombosis (in words): general statement on potent inhibitors of platelet aggregation

Compound: CCCCCC(O)C#CC1C2CCC(C2)C1C/C=C/CCCC(=O)OC (stereo not shown) [Example 2]
- reduction in thrombosis, combination with anagrelide (in words) [1]: substantial reduction in thrombosis

Compound: O=C1CN2Cc3c(ccc(Cl)c3Cl)N=C2N1 [anagrelide]
- inhibition of thrombosis (in words) [2]: significant inhibition of this kind of thrombosis

Compound: CCCCC[C@H](O)/C=C/[C@@H]1[C@H]2C/C(=C/CCCC(=O)O)O[C@H]2C[C@H]1O [prostacyclin]
- inhibition of thrombosis (in words) [2]: significant inhibition of this kind of thrombosis
- activity in the biolaser model (in words) ([2]; infused intravenously): active
